A word on the Km: it is the concentration of substrate that gives half-maximal velocity. One may read the kcat as the number of substrate molecules converted per active site and unit of time at saturation.

The text below walks through data of patent US8093028B2, “Engineered glycosyltransferases with expanded substrate specificity” (Wisconsin Alumni Research Foundation, priority 2007, dated 2012).

The target of one data set is T1, OleD A242V (Streptomyces antibioticus, UniProt Q53685, A242V/P55A/R82V/R83E/T84P).
T1 construct: made in house; host or cells: E. coli BL21(DE3)pLysS (error-prone PCR clone in pET28a)
The format is biochemical. The settings on record: Table 3, 4-Me-umb (4) as acceptor, end point assay. The procedure:
(§1) Reactions were carried out as described above with the following exceptions. The total volume was 50 μl and the acceptor FIG. 1: 4 was at 50 μM and the NDP-sugar at ˜500 μM. The NDP-sugars were used directly from RmlA-catalyzed reactions. […] Reactions were incubated at 25° C. for 3 h.
(§2) The total volume was 50 μl and the acceptor FIG. 1: 4 or FIG. 1: 1 was at 50 μM and the NDP-sugar at ˜500 μM. The NDP-sugars were used directly from RmlA-catalyzed reactions. […] Reactions were incubated at 25° C. for 3 h.
(§3) For activity toward FIG. 1: 4, aliquots (25 μl) were quenched with 25 μl of an 8:1 mixture of ice-cold MeOH/HCl, and centrifuged at 14,000 rpm for 10 min. […] HPLC peak areas were integrated, and the product concentration calculated as a percent of the total peak area. All products were characterized by LC-MS. Mass spectra were obtained using electrospray ionization on an Agilent 1100 HPLC-MSD SL quadrapole mass spectrometer connected to a UV/Vis diode array detector.

For another data set, the target named is T2, OleD P67T (Streptomyces antibioticus, UniProt Q53685, P55A/P67T/R82V/R83E/T84P).
T2 construct: made in house; host or cells: E. coli (site-directed mutant of pET28/OleD)
The format is biochemical. To be noted: Table 3, 4-Me-umb (4) as acceptor, end point assay. How it is done:
as §1, §2, §3

In data set [1] the target is T3, OleD P67T/S132F/A242V (Streptomyces antibioticus, UniProt Q53685, A242V/P67T/S132F).
T3 construct: made in house; host or cells: E. coli (site-directed mutant of pET28/OleD)
The format is biochemical. To be noted: for Conversion rates (%), P67T/S132F/A242V: Table 3, 4-Me-umb (4) as acceptor, end point assay; for Conversion Rate (%), P67T/S132F/A242V: Table 2, acceptor 4 at 50 μM, NDP-sugar ~500 μM, 25° C., 3 h. How it is done:
as §1, §2, §3

The target of a further data set is T4, OleD S132F (Streptomyces antibioticus, UniProt Q53685, P55A/R82V/R83E/S132F/T84P).
T4 construct: made in house; host or cells: E. coli (site-directed mutant of pET28/OleD)
The format is biochemical. To be noted: Table 3, 4-Me-umb (4) as acceptor, end point assay. The procedure:
as §1, §2, §3

In the next data set the target is T5, WT OleD (Streptomyces antibioticus, UniProt Q53685, P55A/R82V/R83E/T84P).
T5 construct: made in house; host or cells: E. coli BL21(DE3)pLysS, plasmid pET28/OleD
The format is biochemical. To be noted: for Conversion rates (%), WT: Table 3, 4-Me-umb (4) as acceptor, end point assay; for Conversion Rate (%), WT: Table 2, acceptor 4 at 50 μM, NDP-sugar ~500 μM, 25° C., 3 h. How it is done:
as §1, §2, §3

Data set [2] addresses T3, OleD P67T/S132F/A242V. The format is biochemical. The settings on record: novobiocic acid (FIG. 9: 1) as acceptor. The procedure:
Biotechnol. […] Reactions were incubated at 25° C. for 3 h. […] Supernatants were analyzed by analytical reverse-phase HPLC as described above. HPLC peak areas were integrated, and the product concentration calculated as a percent of the total peak area. All products were characterized by LC-MS.

Data set [3] deals with ASP OleD (A242V/S132F/P67T). Briefly: Kinetic parameters with model acceptors phenol, thiophenol, aniline. The format is biochemical, Streptomyces antibioticus. The settings on record: UDP-Glc donor. The source says:
To confirm O—, S- and N-glucoside formation, iterative glycosylation, and determine anomeric stereoselectivity, a select set of OleD-catalyzed reactions with simple aromatic model acceptors phenol (FIG. 17: 8), thiophenol (FIG. 17: 6), and aniline (FIG. 17: 34) were studied in depth.

Data set [4] deals with CC(C)=CCc1cc(C(=O)Nc2c(O)c3ccc(O)c(C)c3oc2=O)ccc1O. Briefly: purified protein, by the assay type. The settings on record: other: named substrate varied, other substrate fixed at 5 mM; pH 8.0.

Like-named read-outs stand apart in the source and are kept apart here. Some results are limits rather than exact numbers.

As for `[N-]=[N+]=NCC1OC(OP(=O)(O)OP(=O)(O)OC[C@H]2O[C@@H](n3ccc(=O)[nH]c3=O)[C@H](O)[C@@H]2O)C(O)C(O)C1O` (stereo partly drawn) [UDP-6-azido-glc (11), UDP-6-azido-glucose], the “Conversion rates (%), A242V” value on OleD A242V is listed as 2%. The “Conversion rates (%), P67T” value on OleD P67T was determined as 2%. Further, at OleD P67T/S132F/A242V [1], the “Conversion rates (%), P67T/S132F/A242V” value is 41%. The “Conversion rates (%), S132F” value at OleD S132F came to 1%. For the same compound, the “Conversion rates (%), WT” value at WT OleD worked out at 0%. Moreover, at OleD P67T/S132F/A242V [2], the “donor acceptance, P67T/S132F/A242V” value is “albeit poorly”.
On to `O=c1ccn([C@@H]2O[C@H](COP(=O)(O)OP(=O)(O)O[C@H]3OC[C@@H](O)[C@H](O)[C@H]3O)[C@@H](O)[C@H]2O)c(=O)[nH]1` [UDP-xylose (7), UDP-xylose], for which the “Conversion rates (%), A242V” value on OleD A242V came to 2%. Further, the “Conversion rates (%), P67T” value at OleD P67T amounted to 2%. For the same compound, at OleD P67T/S132F/A242V [1], the “Conversion Rate (%), P67T/S132F/A242V” value was found to be 31% and the “Conversion rates (%), P67T/S132F/A242V” value was determined as 31%. Moreover, the “Conversion rates (%), S132F” value on OleD S132F was 1.5%.
`Nc1ccccc1` [aniline (FIG. 17: 34), aniline]: in data set [3], the “catalytic efficiency (kcat/Km) improvement of ASP versus WT OleD” value was 5 fold.
Turning to `Oc1ccccc1` [phenol (FIG. 17; 8), phenol], the “catalytic efficiency (kcat/Km) improvement of ASP versus WT OleD” value in data set [3] was found to be 25 fold.
Same read-out and setting: the same measure for `Sc1ccccc1` [thiophenol (FIG. 17: 6), thiophenol]: 4 fold.
For the compound “OleD P67T/I112K/A242V (Streptomyces antibioticus; A242V/I112K/P67T)”, in data set [4], the Km amounted to 800 µM and the kcat stood at 0.0855 s⁻¹.
As for UDP-4-deoxy-glc [UDP-4-deoxy-glc (12)], the “Conversion rates (%), A242V” value at OleD A242V amounted to 0%. Moreover, on OleD P67T, the “Conversion rates (%), P67T” value is reported as 0%. In addition, at OleD P67T/S132F/A242V [1], the “Conversion rates (%), P67T/S132F/A242V” value worked out at 22%. Moreover, the “Conversion rates (%), S132F” value on OleD S132F is on record as 0%. Moreover, at WT OleD, the “Conversion rates (%), WT” value was 0%.
As for “UDP-6-deoxy-glucose [UDP-6-deoxy-glc (8)]”, the “Conversion rates (%), A242V” value is reported as 6% at OleD A242V and at most 12% at OleD A242V (listed as FIG. 3: 8). For the same compound, the “Conversion rates (%), P67T” value is listed as 11% at OleD P67T and at most 12% at OleD P67T (listed as FIG. 3: 8). Moreover, on OleD P67T/S132F/A242V [1], the “Conversion Rate (%), P67T/S132F/A242V” value amounted to 85%. The “Conversion rates (%), P67T/S132F/A242V” value on OleD P67T/S132F/A242V [1] is given as 85%. Also, the “Conversion rates (%), S132F” value was 10% at OleD S132F and at most 12% at OleD S132F (listed as FIG. 3: 8). In addition, at WT OleD, the “Conversion Rate (%), WT” value was determined as 6%. Further, at WT OleD, the “Conversion rates (%), WT” value is 6%.
On to UDP-6-thio-glucose [FIG. 3: 9], for which the “Conversion Rate (%), P67T/S132F/A242V” value on OleD P67T/S132F/A242V [1] stood at 47%. For the same compound, at WT OleD (listed as 9), the “Conversion Rate (%), WT” value was determined as 1%.
